Test results from patent US7795457B2, “Carbamate compounds” (Kosan Biosciences Incorporated, priority 2007, dated 2010).
Where two headings read alike, the source gives them in different places.

Assays:
CAL-27 = assay: Inhibition of tumor cell proliferation, CAL-27; assay type: cell-based; details: Homo sapiens
Protocol: (§1) The biological activity of compounds of this invention was evaluated by measuring their inhibitory effect on the proliferation of various tumor cell lines. HCT-116 is a human colon cancer cell line. LNCap is a human prostate cancer cell line. SiHa is an HPV-16 positive human cervical cancer line.
(§2) Table D presents additional data for the activity of compounds A-1 and A-4 against various cell lines. In some instances, comparative data against leptomycin B (LMB) and/or compound VI (Dong et al., US 2005/0272727 A1 (2005) is also provided.
(§3) The additional cell lines tested against represent a variety of different cancers: bladder cancer (UM-UC-3), breast cancer (BT474, HCC1937, MDA-MB468, NCI-ADR), CNS cancer (U87MG (glioma), SKNSH (neuroblastoma)), colon cancer (LoVo, LS411N, LS513), head and neck cancer (CAL-27, FaDu), leukemia (CCRF-CEM, MOLT-4), liver cancer (HepG2), lung cancer (A549, NCI-H23, NCI-H358), melanoma (Colo829), ovarian cancer (OVCAR-4), pancreatic cancer (BxPC-3, Mia-PaCa2), prostate cancer (22Rv1, PC-3), and renal cancer (A-498, Caki-1).

Colo829 = assay: Inhibition of tumor cell proliferation, Colo829; assay type: cell-based; details: Homo sapiens, COLO-829
Protocol: as §1, §2, §3

UM-UC-3 = assay: Inhibition of tumor cell proliferation, UM-UC-3; assay type: cell-based; details: Homo sapiens, read-out: IC50, nM, UM-UC-3
Protocol: as §1, §2, §3

A-498 = assay: Inhibition of tumor cell proliferation, A-498; assay type: cell-based; details: Homo sapiens, A498; exposure time 1 h
Protocol: as §1, §2, §3

PC-3 = assay: Inhibition of tumor cell proliferation, PC-3; assay type: cell-based; details: Homo sapiens
Protocol: as §1, §2, §3

BT474 = assay: Inhibition of tumor cell proliferation, BT474; assay type: cell-based; details: Homo sapiens, BT-474
Protocol: as §1, §2, §3

Caki-1 = assay: Inhibition of tumor cell proliferation, Caki-1; assay type: cell-based; details: Homo sapiens, exposure time 1 h
Protocol: as §1, §2, §3

CCRF-CEM = assay: Inhibition of tumor cell proliferation, CCRF-CEM; assay type: cell-based; details: Homo sapiens, exposure time 72 h
Protocol: as §1, §2, §3

LS411N = assay: Inhibition of tumor cell proliferation, LS411N; assay type: cell-based; details: Homo sapiens, LS-411N
Protocol: as §1, §2, §3

HepG2 = assay: Inhibition of tumor cell proliferation, HepG2; assay type: cell-based; details: Homo sapiens
Protocol: as §1, §2, §3

NCI-ADR = assay: Inhibition of tumor cell proliferation, NCI-ADR; assay type: cell-based; details: Homo sapiens, NCI/ADR-RES, read-out: IC50, nM, NCI-ADR
Protocol: as §1, §2, §3

NCI-H358 = assay: Inhibition of tumor cell proliferation, NCI-H358; assay type: cell-based; details: Homo sapiens
Protocol: as §1, §2, §3

NCI-H23 = assay: Inhibition of tumor cell proliferation, NCI-H23; assay type: cell-based; details: Homo sapiens
Protocol: as §1, §2, §3

Mia-PaCa2 = assay: Inhibition of tumor cell proliferation, Mia-PaCa2; assay type: cell-based; details: Homo sapiens, MIA PaCa-2
Protocol: as §1, §2, §3

U87MG = assay: Inhibition of tumor cell proliferation, U87MG; assay type: cell-based; details: Homo sapiens, U-87 MG
Protocol: as §1, §2, §3

LS513 = assay: Inhibition of tumor cell proliferation, LS513; assay type: cell-based; details: Homo sapiens, LS-513
Protocol: as §1, §2, §3

A549 = assay: Inhibition of tumor cell proliferation, A549; assay type: cell-based; details: Homo sapiens, read-out: IC50, nM, A549
Protocol: as §1, §2, §3

HCC1937 = assay: Inhibition of tumor cell proliferation, HCC1937; assay type: cell-based; details: Homo sapiens
Protocol: as §1, §2, §3

MOLT-4 = assay: Inhibition of tumor cell proliferation, MOLT-4; assay type: cell-based; details: Homo sapiens, exposure time 72 h
Protocol: as §1, §2, §3

SKNSH = assay: Inhibition of tumor cell proliferation, SKNSH; assay type: cell-based; details: Homo sapiens, SK-N-SH, read-out: IC50, nM, SKNSH
Protocol: as §1, §2, §3

OVCAR-4 = assay: Inhibition of tumor cell proliferation, OVCAR-4; assay type: cell-based; details: Homo sapiens
Protocol: as §1, §2, §3

LoVo = assay: Inhibition of tumor cell proliferation, LoVo; assay type: cell-based; details: Homo sapiens, exposure time 1 h
Protocol: as §1, §2, §3

22Rv1 = assay: Inhibition of tumor cell proliferation, 22Rv1; assay type: cell-based; details: Homo sapiens
Protocol: as §1, §2, §3

FaDu = assay: Inhibition of tumor cell proliferation, FaDu; assay type: cell-based; details: Homo sapiens
Protocol: as §1, §2, §3

LNCap = assay: Inhibition of tumor cell proliferation, LNCap; assay type: cell-based, human; details: Homo sapiens, LNCaP, read-out: Cancer Cell Line (IC50, nM) LNCap
Protocol: as §1

HCT-116 = assay: Inhibition of tumor cell proliferation, HCT-116; assay type: cell-based, human; details: Homo sapiens, read-out: Cancer Cell Line (IC50, nM) HCT-116
Protocol: as §1

CRM1 substrate RanBP1 = assay: Nuclear export block (RanBP1 localization, recovery after compound removal); assay type: cell-based; details: recovery of cytoplasmic RanBP1 localization after compound washout (typically 1 h exposure; 8, 24 or 48 h recovery)
Protocol: The nuclear export blocking capability of compounds of this invention was evaluated as follows:
1-5×10^4 cells were seeded onto 12 mm glass coverslips or wells of a chamber slide (for example, Lab-Tek #177445). Cells were grown overnight at 37° C. to allow cells to attach to the surface. Media was removed and replaced with media containing the desired test compound and incubated the required time period (typically 1 h). For recovery experiments, cells were washed with PBS or media and incubated in media without test compound for the desired recovery periods (typically 8, 24, or 48 h). The media was removed and coverslips/wells were washed with PBS pH 7.4 for 1 minute. Coverslips or slides were fixed with 3.7% formaldehyde in PBS for 20 minutes at room temperature, washed three times in PBS, and stained for the CRM1 substrate RanBP1.
Coverslips or chamber slides were permeabilized and blocked in 10% donkey serum, 0.1% Triton X-100 in PBS for 30 minutes at room temperature. Primary antibodies were diluted in PBS and incubated for 1 hour at room temperature: goat-anti-RanBP1 (Santa Cruz Biotechnology, sc-1160; 1:50 dilution) and mouse-anti-tubulin (Sigma, T9026; 1:400). Cells were washed 3×5 minutes in PBS. Secondary antibodies donkey-anti-goat Cy3 (705-165-147, Jackson Immunoresearch) and donkey anti-mouse FITC (715-095-150, Jackson Immunoresearch) were diluted 1:200 in PBS and incubated for 1 hour at room temperature. Secondary antibody was removed and cells were stained with a nuclear dye such as DAPI (Sigma, D8417; 2.5 ug/mL in PBS) or Hoechst 33342 (Molecular Probes, H3570; 100 ng/mL in PBS) for 5 minutes at room temperature. Cells were washed 3×5 minutes in PBS and coverslips were mounted with FluorSave (EMD Biosciences, 80058-108). Nuclear (N) or cytoplasmic (C) localization of RanBP1 was examined using a 40× objective on a Zeiss Axiovert 200 inverted epiflourescence microscope. Nuclear localization (N>C) was confirmed after the initial drugging period.

SiHa = assay: Inhibition of tumor cell proliferation, SiHa; assay type: cell-based, human; details: Homo sapiens, SiHa, read-out: Cancer Cell Line (IC50, nM) SiHa
Protocol: as §1

## CCC(=C/[C@H](C)C/C=C/C(C)=C/[C@@H](C)C(=O)[C@@H](C)[C@H](O)[C@@H](C)C/C(C)=C/C(=O)NCCc1cccnc1)/C=C/[C@@H]1OC(=O)C=C[C@@H]1C [VI, reference compound]
CAL-27; exposure time 1 h
  IC50: 0.7 nM
CAL-27; exposure time 72 h
  IC50: 0.3 nM
Colo829; exposure time 1 h
  IC50: 2.1 nM
Colo829; exposure time 72 h
  IC50: 0.3 nM
UM-UC-3; UMUC3, 1 h
  IC50: 2.6 nM
UM-UC-3; UMUC3, 72 h
  IC50: 0.3 nM
A-498
  IC50: 4.8 nM
PC-3; exposure time 1 h
  IC50: 3.3 nM
PC-3; exposure time 72 h
  IC50: 0.7 nM
BT474; exposure time 1 h
  IC50: 2.1 nM
BT474; exposure time 72 h
  IC50: 0.8 nM
Caki-1
  IC50: 4.5 nM
CCRF-CEM
  IC50: 0.8 nM
LS411N; exposure time 1 h
  IC50: 2.9 nM
LS411N; exposure time 72 h
  IC50: 0.5 nM
HepG2; exposure time 1 h
  IC50: 3.2 nM
HepG2; exposure time 72 h
  IC50: 0.7 nM
NCI-ADR; 1 h
  IC50: 77.3 nM
NCI-ADR; 72 h
  IC50: 13 nM
NCI-H358; exposure time 1 h
  IC50: 1.6 nM
NCI-H358; exposure time 72 h
  IC50: 0.4 nM
NCI-H23; exposure time 1 h
  IC50: 2.6 nM
NCI-H23; exposure time 72 h
  IC50: 0.4 nM
Mia-PaCa2; exposure time 1 h
  IC50: 5 nM
Mia-PaCa2; exposure time 72 h
  IC50: 1.7 nM
U87MG; exposure time 1 h
  IC50: 5 nM
U87MG; exposure time 72 h
  IC50: 0.6 nM
LS513; exposure time 1 h
  IC50: 5.5 nM
LS513; exposure time 72 h
  IC50: 0.9 nM
A549; A549, 1 h
  IC50: 3.8 nM
A549; A549, 72 h
  IC50: 3 nM
HCC1937; exposure time 1 h
  IC50: 5.7 nM
HCC1937; exposure time 72 h
  IC50: 4.3 nM
MOLT-4
  IC50: 2.9 nM
SKNSH; 1 h
  IC50: 2.2 nM
SKNSH; 72 h
  IC50: 0.5 nM
OVCAR-4; exposure time 1 h
  IC50: 6.7 nM
OVCAR-4; exposure time 72 h
  IC50: 1.5 nM
LoVo
  IC50: 2.5 nM
22Rv1; exposure time 1 h
  IC50: 1.8 nM
22Rv1; exposure time 72 h
  IC50: 0.3 nM
FaDu; exposure time 1 h
  IC50: 7.3 nM
FaDu; exposure time 72 h
  IC50: 1 nM

## CC(=C/[C@H](C)C/C=C/C(C)=C/[C@@H](C)C(=O)[C@@H](C)[C@H](OC(N)=O)[C@@H](C)C/C(C)=C/COC(N)=O)/C=C/[C@H]1CC=CC(=O)O1 [Compound A-4]
CAL-27; exposure time 1 h
  IC50: 2.8 nM
CAL-27; exposure time 72 h
  IC50: 0.5 nM
Colo829; exposure time 1 h
  IC50: 4.6 nM
Colo829; exposure time 72 h
  IC50: 0.9 nM
LNCap; 1 h
  IC50: 6.6 nM
LNCap; 72 h
  IC50: 1.5 nM
UM-UC-3; UMUC3, 1 h
  IC50: 7 nM
UM-UC-3; UMUC3, 72 h
  IC50: 1.4 nM
A-498
  IC50: 16 nM
BT474; exposure time 1 h
  IC50: 3.8 nM
BT474; exposure time 72 h
  IC50: 2.3 nM
HCT-116; HCT-116, 1 h
  IC50: 13.1 nM
HCT-116; HCT-116, 72 h
  IC50: 2.2 nM
LS411N; exposure time 1 h
  IC50: 9.4 nM
LS411N; exposure time 72 h
  IC50: 1.6 nM
HepG2; exposure time 1 h
  IC50: 7.8 nM
HepG2; exposure time 72 h
  IC50: 0.8 nM
NCI-ADR; 1 h
  IC50: 771 nM
NCI-ADR; 72 h
  IC50: 71.3 nM
NCI-H358; exposure time 1 h
  IC50: 5.6 nM
NCI-H358; exposure time 72 h
  IC50: 0.7 nM
NCI-H23; exposure time 1 h
  IC50: 8.5 nM
NCI-H23; exposure time 72 h
  IC50: 1.3 nM
Mia-PaCa2; exposure time 1 h
  IC50: 49.7 nM
Mia-PaCa2; exposure time 72 h
  IC50: 10.8 nM
U87MG; exposure time 1 h
  IC50: 25.5 nM
U87MG; exposure time 72 h
  IC50: 1.5 nM
LS513; exposure time 1 h
  IC50: 6.3 nM
LS513; exposure time 72 h
  IC50: 1 nM
HCC1937; exposure time 1 h
  IC50: 42.3 nM
HCC1937; exposure time 72 h
  IC50: 7.3 nM
CRM1 substrate RanBP1
  Nuclear Export Block: Moderate recovery
SiHa; 1 h
  IC50: 3.6 nM
SiHa; 72 h
  IC50: 0.8 nM
OVCAR-4; exposure time 1 h
  IC50: 80 nM
OVCAR-4; exposure time 72 h
  IC50: 8.8 nM
22Rv1; exposure time 1 h
  IC50: 4.6 nM
22Rv1; exposure time 72 h
  IC50: 0.7 nM
FaDu; exposure time 1 h
  IC50: 27.9 nM
FaDu; exposure time 72 h
  IC50: 1.6 nM

## CCC(=C/[C@H](C)C/C=C/C(C)=C/[C@@H](C)C(=O)[C@@H](C)[C@H](O)[C@@H](C)C/C(C)=C/C(=O)O)/C=C/[C@@H]1OC(=O)C=C[C@@H]1C [Leptomycin B, reference compound]
LNCap; exposure time to compound 1 h
  IC50: 3.3 nM
LNCap; exposure time to compound 72 h
  IC50: 0.3 nM
UM-UC-3; UMUC3, exposure time 72 h
  IC50: 0.3 nM
HCT-116; HCT-116, exposure time to compound 1 h
  IC50: 4.3 nM
HCT-116; HCT-116, exposure time to compound 72 h
  IC50: 0.32 nM
NCI-ADR; exposure time 1 h
  IC50: 33.8 nM
A549; A549, exposure time 72 h
  IC50: 0.55 nM
CRM1 substrate RanBP1
  Nuclear Export Block: Slow recovery
SKNSH; exposure time 1 h
  IC50: 4.1 nM
SKNSH; exposure time 72 h
  IC50: 0.4 nM
SiHa; exposure time to compound 1 h
  IC50: 2.1 nM
SiHa; exposure time to compound 72 h
  IC50: 0.4 nM
